Assay results from patent US20250034159A1, “INHIBITORS OF EPIDERMAL GROWTH FACTOR RECEPTOR” (ORIC Pharmaceuticals, Inc., priority 2021, published 2025).
Like-named read-outs stand apart in the source and are kept apart here.

Assays:
[1] = target: recombinant human EGFR exon 19 deletion/C797S double mutant protein (Homo sapiens (Human), UniProt P00533, C797S/DEL746-750); assay: Biological Activity Assay C: biochemical assay against EGFR exon 19 deletion/C797S protein (EGFR d19/CS)
Protocol: In Row A of a 384-well polypropylene plate, was added 48 μL of DMSO. In wells A1 and A24, were added 12 μL of DMSO. […] To a well in Row A were added 12 μL of each 10 mM test compound stock (100% DMSO). […] The final intermediate dilution plate contained 4×16-point compound serial dilutions in assay buffer. The DMSO concentration was 10%. The intermediate compound dilution plate was transferred to the Bravo and the “5 uL dispense into ARP.pro” protocol was run. To the black low volume assay ready plates, were added 5 μL of 40 uM Phosphosens peptide sensor/4 mM ATP working solution to each well. […] To column 24, was added 10 μL of assay buffer. The final DMSO concentration was 2.5%. […] The plates were sealed with the TopSeal-A Plus plate seals. […] Set for 90 cycles with 120 second interval. […] The slope of each curve was constructed using Dotmatics in each well, and each IC50s was calculated using a 4-parameter fit model.

[2] = test system: Ba/F3_EGFR WT cells; assay: Biological Activity Assay D: BaF3 cell proliferation assay, EGFR wild-type (BaF3 WT); type: cell-based; conditions: Ba/F3 EGFR, read-out: BaF3 WT IC50
Protocol: (§1) One frozen vial of cells should be thawed into one T25 flask in 10 mL media. Keep the flask upright in the incubator.
(§2) Method: One frozen vial of cells was thawed into one T25 flask in 10 mL media and the flask was kept upright in the incubator. Cells were split 1:10 every two to three days when cells reached confluency of around 1×10^6 cells/mL. Bravo protocol files were used with Greiner 384-well plates for all steps of compound preparation, cell plating and compound addition. […] 16 μL of DMSO were added (for compounds starting at 20 μM) or 28 μL DMSO (for compounds starting at 5 μM) to 96-well V-bottom polypropylene plate: wells 1A-1H (8 compounds/plate). […] 20 μL DMSO were added to the remainder of the wells (columns 2-12) in the 96-well V-bottom plate. A Bravo liquid handler was used to make 1:3 serial dilutions from columns 1 to 11 (12 remains as DMSO only) to prepare the DMSO dilution plate. 144 μL media were added to each well of a new 96-well V-bottom polypropylene plate to prepare the intermediate dilution plate. A Bravo or 96-head Integra liquid handler was used to add and mix 6 μL of test compound from the DMSO dilution plate to the intermediate dilution plate. (1:25 dilution). Cells were transferred from a flask into a 50 mL conical, vortex gently and the number of cells were counted, with a target cell number of about 1×10^6 cells per mL. The cells were diluted in culture medium in 50 mL conical or T25 flask, and the cell suspension was added to BRAVO reservoir and then use Bravo protocol to plate the appropriate number of cells shown below in 36 μl of medium per well as follows: Ba/F3-WT-EGFR 2000 cells per well of a 384 well plate; Ba/F3-LR/CS-EGFR 2000 cells per well of a 384 well plate; and Ba/F3-d19/CS-EGFR 1500 cells per well of a 384 well plate. An extra 10 mL of dead volume was utilized in each reservoir.
(§3) Using a Bravo liquid handler, 4 μl of test compound solution was added per well from the intermediate dilution plate to plated cells (1:10 dilution from the intermediate plate, final compound dilution 1:250 and final DMSO concentration per well is 0.4%). Using the 96 BRAVO Head, 25 μl were aspirated from the intermediate dilution plate and 4 μl each were dispensed into 4 wells (square pattern) in the 384-well plate. Any remaining test compound is dispensed into a secondary plate to prevent cross contamination of cells in the intermediate compound plate. After the compounds were added, the plate was shaken at 600 rpm gently for 60 see, and the plates were incubated in a tissue culture incubator, 37° C., 5% CO2, for ˜ 72 hours. After incubation, CTG 2.0 reagent was allowed to equilibrate to room temperature (˜3 hours) and cells to reach room temperature (˜10-15 minutes) and reagent was added to cells (40 μL/well) using a Bravo liquid handler. The plates were shaken to allow proper mixing (˜5 min) and let settle for 10 minutes and were read on Tecan plate reader using the appropriate luminescence method. Data from plate reader was transferred to an excel file and entered directly into Dotmatics using the protocols under EGFR Project/Cell Proliferation/named: “BaF3_EGFRwt_CP”, “BaF3_EGFR_d19/CS_CP”, “BaF3_EGFR_LR/CS_CP”. Curves were fit with a 4-parameter model and IC50s calculated by the Dotmatics software. DMSO wells were averaged to define the high control (100% growth). The average of the highest concentration of the positive control compound (afatinib) was used to define the 0% growth and used to lock the bottom of the curves. The tops of the curves were not fixed.

[3] = test system: BaF3_EGFR LR/CS cells; assay: Biological Activity Assay D: BaF3 cell proliferation assay, EGFR L858R/C797S mutant (BaF3 LR/CS); type: cell-based; conditions: Ba/F3 EGFR, read-out: BaF3 LR/CS IC50
Protocol: as §1, §2, §3

[4] = test system: BaF3_EGFR d19/CS cells; assay: Biological Activity Assay D: BaF3 cell proliferation assay, EGFR exon 19 deletion/C797S (BaF3 d19/CS); type: cell-based; conditions: Ba/F3 EGFR, read-out: BaF3 d19/CS IC50
Protocol: as §1, §2, §3

[5] = Ba/F3_EGFR WT cells, ~72 hours, CellTiter-Glo
[6] = BaF3_EGFR LR/CS cells, ~72 hours, CellTiter-Glo
[7] = BaF3_EGFR d19/CS cells, ~72 hours, CellTiter-Glo

recombinant human EGFR exon 19 deletion/C797S double mutant protein, sequence (P00533 other isoform, or with tags, fused parts or gaps C797S/del 1-668/del 746-750 limits assumed): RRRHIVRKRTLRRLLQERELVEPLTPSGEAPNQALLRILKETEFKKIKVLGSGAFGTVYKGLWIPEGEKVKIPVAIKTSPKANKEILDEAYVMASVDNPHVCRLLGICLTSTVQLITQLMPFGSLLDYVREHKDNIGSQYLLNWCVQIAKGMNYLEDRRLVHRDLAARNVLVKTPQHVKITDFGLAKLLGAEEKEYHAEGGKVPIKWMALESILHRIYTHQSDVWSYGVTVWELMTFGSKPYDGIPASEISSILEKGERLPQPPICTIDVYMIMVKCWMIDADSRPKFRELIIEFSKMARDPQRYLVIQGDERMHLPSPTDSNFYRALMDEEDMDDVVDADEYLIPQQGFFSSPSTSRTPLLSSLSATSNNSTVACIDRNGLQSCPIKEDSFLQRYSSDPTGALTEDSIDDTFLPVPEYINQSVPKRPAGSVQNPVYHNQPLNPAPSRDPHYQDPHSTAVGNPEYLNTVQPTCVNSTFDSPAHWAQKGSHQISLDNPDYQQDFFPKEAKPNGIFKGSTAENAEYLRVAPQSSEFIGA

Structure (SMILES) | IC50 [1] | IC50 [2, 5] | IC50 [3, 6] | IC50 [4, 7] | IC50 ([2]; 72 h) | IC50 ([3]; 72 h) | IC50 ([4]; 72 h)
O[C@H]1C[C@H](n2cc(-c3ncnc4oc(-c5ccccc5)cc34)c(-c3ccc(F)cc3)n2)C1 [Example 121, (1r,3r)-3-(3-(4-Fluorophenyl)-4-(6-phenylfuro[2,3-d]pyrimidin-4-yl)-1H-pyrazol-1-yl)cyclobutan-1-ol] | 0.14 nM | 1180 nM | 12.6 nM | 29.8 nM | – | – | –
Fc1ccc(-c2nn(CC3CC(F)(F)C3)cc2-c2ncnc3oc(-c4ccccc4)cc23)cc1 [Example 123, 4-{1-[(3,3-difluorocyclobutyl)methyl]-3-(4-fluorophenyl)-1H-pyrazol-4-yl}-6-phenylfuro[2,3-d]pyrimidine] | 2.89 nM | 3890 nM | 96.1 nM | 260 nM | – | – | –
Fc1ccc(-c2nn(C[C@H]3C[C@H](F)C3)cc2-c2ncnc3oc(-c4ccccc4)cc23)cc1 [Example 124, 4-[1-{[(1r,3r)-3-fluorocyclobutyl]methyl}-3-(4-fluorophenyl)-1H-pyrazol-4-yl]-6-phenylfuro[2,3-d]pyrimidine] | 3.02 nM | 4270 nM | 230 nM | 611 nM | – | – | –
O=S1(=O)CC(n2cc(-c3ncnc4[nH]c(-c5ccccc5)nc34)c(-c3ccc(F)cc3)n2)C1 [Example 127, 3-[3-(4-Fluorophenyl)-4-(8-phenyl-9H-purin-6-yl)-1H-pyrazol-1-yl]-1λ6-thietane-1,1-dione] | 0.09 nM | 3680 nM | 15.8 nM | 24.6 nM | – | – | –
CC(C)(O)Cn1cc(-c2ncnc3[nH]c(-c4ccccc4)nc23)c(-c2ccc(F)cc2)n1 [Example 130, 1-[3-(4-Fluorophenyl)-4-(8-phenyl-9H-purin-6-yl)-1H-pyrazol-1-yl]-2-methylpropan-2-ol] | 0.12 nM | 2340 nM | 10.1 nM | 12 nM | – | – | –
CS(=O)(=O)CCn1cc(-c2ncnc3[nH]c(-c4ccccc4)nc23)c(-c2ccc(F)cc2)n1 [Example 131, 6-{3-(4-fluorophenyl)-1-[2-(methanesulfonyl)ethyl]-1H-pyrazol-4-yl}-8-phenyl-9H-purine] | 1.04 nM | 3000 nM | 81.9 nM | 162 nM | – | – | –
CC(C)(C)OC(=O)N1CC(C#Cc2cc3c(-c4cn(C5CS(=O)(=O)C5)nc4-c4ccc(F)cc4)ncnc3o2)C1 [Example 132, tert-butyl 3-({4-[1-(1,1-dioxo-1λ6-thietan-3-yl)-3-(4-fluorophenyl)-1H-pyrazol-4-yl]furo[2,3-d]pyrimidin-6-yl}ethynyl)azetidine-1-carboxylate] | 1.51 nM | 5490 nM | 1160 nM | 860 nM | – | – | –
O=S1(=O)CC(n2cc(-c3ncnc4oc(C#CC5CNC5)cc34)c(-c3ccc(F)cc3)n2)C1 [Example 133, 3-[4-{6-[(azetidin-3-yl)ethynyl]furo[2,3-d]pyrimidin-4-yl}-3-(4-fluorophenyl)-1H-pyrazol-1-yl]-1λ6-thietane-1,1-dione] | 7.1 nM | 7550 nM | 2190 nM | 1190 nM | – | – | –
CC(=O)NCCn1cc(-c2ncnc3oc(-c4ccccc4)cc23)c(-c2ccc(F)cc2)n1 [Example 134, N-{2-[3-(4-Fluorophenyl)-4-(6-phenylfuro[2,3-d]pyrimidin-4-yl)-1H-pyrazol-1-yl]ethyl}acetamide] | 0.3 nM | – | – | – | 1030 nM | 33.3 nM | 57.1 nM
FCCn1cc(-c2ncnc3oc(-c4ccccc4)cc23)c(-c2ccc(F)cc2)n1 [Example 135, 4-[1-(2-Fluoroethyl)-3-(4-fluorophenyl)-1H-pyrazol-4-yl]-6-phenylfuro[2,3-d]pyrimidine] | 0.33 nM | 1160 nM | 17.1 nM | 31.9 nM | – | – | –
CC(=O)N1CC=C(c2cc3c(-c4cn(CC(C)(C)O)nc4-c4ccc(F)cc4)ncnc3o2)CC1 [Example 138, 1-[4-{4-[3-(4-Fluorophenyl)-1-(2-hydroxy-2-methylpropyl)-1H-pyrazol-4-yl]furo[2,3-d]pyrimidin-6-yl}-3,6-dihydropyridin-1 (2H)-yl]ethan-1-one] | 0.5 nM | 1390 nM | 94.4 nM | 63.7 nM | – | – | –
CC(C)(C)OC(=O)N1C=C(c2cc3c(-c4cn(C5CS(=O)(=O)C5)nc4-c4ccc(F)cc4)ncnc3o2)CCC1 [Example 139, tert-butyl 5-{4-[1-(1,1-dioxo-1λ6-thietan-3-yl)-3-(4-fluorophenyl)-1H-pyrazol-4-yl]furo[2,3-d]pyrimidin-6-yl}-3,4-dihydropyridine-1(2H)-carboxylate] | 8.55 nM | 10300 nM | 574 nM | 551 nM | – | – | –
CC(=O)N1CC(C#Cc2cc3c(-c4cn(C5CS(=O)(=O)C5)nc4-c4ccc(F)cc4)ncnc3o2)C1 [Example 140, 3-[4-{6-[(1-Acetylazetidin-3-yl)ethynyl]furo[2,3-d]pyrimidin-4-yl}-3-(4-fluorophenyl)-1H-pyrazol-1-yl]-16-thietane-1,1-dione] | 3.32 nM | 5680 nM | 1630 nM | 916 nM | – | – | –
CC(=O)NCCCn1cc(-c2ncnc3oc(-c4ccccc4)cc23)c(-c2ccc(F)cc2)n1 [Example 141, N-{3-[3-(4-Fluorophenyl)-4-(6-phenylfuro[2,3-d]pyrimidin-4-yl)-1H-pyrazol-1-yl]propyl}acetamide] | 0.25 nM | – | – | – | 921 nM | 43.6 nM | 66.1 nM
Fc1ccc(-c2nn(C3CCC(F)(F)CC3)cc2-c2ncnc3oc(-c4ccccc4)cc23)cc1 [Example 142, 4-[1-(4,4-difluorocyclohexyl)-3-(4-fluorophenyl)-1H-pyrazol-4-yl]-6-phenylfuro[2,3-d]pyrimidine] | 5.19 nM | 6070 nM | 313 nM | 398 nM | – | – | –
CNC(=O)Cn1cc(-c2ncnc3oc(-c4ccccc4)cc23)c(-c2ccc(F)cc2)n1 [Example 143, 2-[3-(4-Fluorophenyl)-4-(6-phenylfuro[2,3-d]pyrimidin-4-yl)-1H-pyrazol-1-yl]-N-methylacetamide] | 0.38 nM | 663 nM | 59.8 nM | 94.3 nM | – | – | –
CC(C)(O)CCn1cc(-c2ncnc3[nH]c(-c4ccccc4)nc23)c(-c2ccc(F)cc2)n1 [Example 145, 4-[3-(4-fluorophenyl)-4-(8-phenyl-9H-purin-6-yl)-1H-pyrazol-1-yl]-2-methylbutan-2-ol] | 0.55 nM | 3210 nM | 83.6 nM | 114 nM | – | – | –
